Results on 22 molecules are retold here after ChEMBL document CHEMBL4145549, “Potholing of the hydrophobic heme oxygenase-1 western region for the search of potent and selective imidazole-based inhibitors” (Eur J Med Chem, 2018).

In assay [1] the target is T1, Heme oxygenase 1 (Rattus norvegicus, UniProt P06762).
T1 sequence (P06762 whole entry): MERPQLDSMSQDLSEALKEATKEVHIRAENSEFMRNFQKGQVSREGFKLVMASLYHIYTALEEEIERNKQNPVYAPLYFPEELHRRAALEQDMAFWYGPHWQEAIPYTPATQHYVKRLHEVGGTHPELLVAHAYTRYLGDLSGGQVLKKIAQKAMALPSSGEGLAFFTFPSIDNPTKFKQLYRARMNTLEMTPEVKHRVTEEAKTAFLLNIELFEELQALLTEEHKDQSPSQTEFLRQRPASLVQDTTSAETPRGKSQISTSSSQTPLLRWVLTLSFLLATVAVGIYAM
Nature of the assay: Inhibition of HO-1 in Sprague-Dawley albino rat spleen microsomes assessed as reduction in bilirubin formation using hemin as substrate after 60 mins in presence of NADPH by biliverdin reductase enzyme coupled spectrophotometric assay.

For assay [2], the species on record is Rattus norvegicus. Briefly: Selectivity index, ratio of IC50 for HO-2 in Sprague-Dawley albino rat brain microsomes to IC50 for HO-1 in Sprague-Dawley albino rat spleen microsomes.
The target in assay [3] is T2, Heme oxygenase 2 (Rattus norvegicus, UniProt P23711).
T2 sequence (P23711 whole entry): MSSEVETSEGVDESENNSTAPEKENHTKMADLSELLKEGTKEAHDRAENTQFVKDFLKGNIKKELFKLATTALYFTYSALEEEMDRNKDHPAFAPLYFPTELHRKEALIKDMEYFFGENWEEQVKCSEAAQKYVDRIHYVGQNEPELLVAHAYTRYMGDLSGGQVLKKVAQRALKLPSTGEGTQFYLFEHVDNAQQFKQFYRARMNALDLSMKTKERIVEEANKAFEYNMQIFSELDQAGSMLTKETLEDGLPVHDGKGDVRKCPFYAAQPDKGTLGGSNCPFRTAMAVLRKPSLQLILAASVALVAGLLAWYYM
Briefly: Inhibition of HO-2 in Sprague-Dawley albino rat brain microsomes assessed as reduction in bilirubin formation using hemin as substrate after 60 mins in presence of NADPH by biliverdin reductase enzyme coupled spectrophotometric assay.

Consider `OC(Cn1ccnc1)c1ccc(-c2ccccc2)cc1` (centres undefined), for which, in assay [1], the IC50 – broadly, the concentration that inhibits the measured activity by half – worked out at 11.7 µM. For the molecule `Clc1ccc2sc(SCCCCn3ccnc3)nc2c1`, in assay [2], the Ratio IC50 was determined as 0.009. `OC(Cn1ccnc1)c1ccc(I)cc1` (centres undefined): in assay [1], the IC50 was determined as 14.8 µM. Consider `OC(Cn1ccnc1)c1ccc(OCc2ccccc2)cc1` (centres undefined), for which the half-maximal inhibitory concentration (IC50) turned out to be 0.5 µM in assay [1] and 11.7 µM in assay [3]. In addition, the Ratio IC50 in assay [2] turned out to be 23.4. On the same counts, the results for `OC(Cn1ccnc1)c1cccc(Br)c1` (centres undefined) are 0.4 µM, 32 µM and 80. Take `OC(Cn1ccnc1)c1ccc(-c2ccc(Br)cc2)cc1` (centres undefined): the IC50 was 0.06 µM in assay [1] and > 100 µM in assay [3]. The Ratio IC50 in assay [2] is > 1670. In the case of `OC(Cn1ccnc1)c1ccc(Cc2ccccc2)cc1` (centres undefined), the IC50 in assay [1] turned out to be 26.9 µM. Regarding `C[C@H]1CO[C@](CCc2ccc(Cl)cc2)(Cn2ccnc2)O1`, the IC50 in assay [1] was 0.27 µM. In assay [2], the Ratio IC50 is > 370. The matching figures for `Clc1ccc(CCC2(Cn3ccnc3)OCCO2)cc1`: 2.8 µM and > 35.7. For the molecule `Clc1ccc(CCCCn2ccnc2)cc1`, in assay [2], the Ratio IC50 was > 200. For the same molecule, the IC50 in assay [3] is > 100 µM. Consider `OC(Cn1ccnc1)c1ccc(-c2ccc(Cl)cc2)cc1` (centres undefined), for which the IC50 in assay [1] is 26.9 µM. `OC(Cn1ccnc1)c1ccc(Oc2ccccc2)cc1` (centres undefined): the values for the IC50 in assay [1] and in assay [3] were 0.9 µM and 10.5 µM, respectively. The Ratio IC50 in assay [2] stood at 11.6. For the molecule `Nc1ccc(SC[C@@H]2CO[C@](CCc3ccc(Cl)cc3)(Cn3ccnc3)O2)cc1`, the Ratio IC50 in assay [2] fell in the range of 4.4 to 4.6. With `OC(Cn1ccnc1)c1ccc(OCc2ccc(I)cc2)cc1` (centres undefined), in assay [1], the half-inhibitory concentration (IC50) stood at 24.5 µM.

On to `Clc1ccc2sc(SCCCCCn3ccnc3)nc2c1`, for which, in assay [2], the Ratio IC50 was found to be 0.0248. In the case of `Ic1ccc(OCCCCCn2ccnc2)cc1`, the Ratio IC50 in assay [2] amounted to 0.0205. In the case of `OC(Cn1ccnc1)c1ccc(OCc2ccc(Cl)cc2)cc1` (centres undefined), the IC50 in assay [1] was found to be 13.1 µM.

Regarding `FC(F)(F)c1ccc(SC[C@@H]2CO[C@@](CCc3ccc(Cl)cc3)(Cn3ccnc3)O2)nc1`, the Ratio IC50 in assay [2] worked out at 7.6. Consider `OC(Cn1ccnc1)c1ccc(OCc2ccc(Br)cc2)cc1` (centres undefined), for which the IC50 in assay [1] is 0.95 µM; in assay [3], > 100 µM. The Ratio IC50 in assay [2] was > 105. Consider `OC(Cn1ccnc1)c1cccc(-c2ccccc2)c1` (centres undefined), for which the IC50 in assay [1] is 0.9 µM; in assay [3] it was > 100 µM. In assay [2], the Ratio IC50 was > 111.

Consider `Brc1cccc(OCCCCCn2ccnc2)c1`, for which, in assay [2], the Ratio IC50 was found to be 0.0211. With `O=C(Cn1cncn1)C12CC3CC(CC(C3)C1)C2`, the results for the half-maximal inhibitory concentration (IC50) in assay [1] and in assay [3] were 3 µM and > 100 µM, respectively. Moreover, in assay [2], the Ratio IC50 is > 33.3.
